# From US20070207952A1, “Long Acting Biologically Active Conjugates” (priority 2003, published 2007)
# Where a SMILES comes first, the peptide text is derived from it. Where no end group is shown, it is not given here. [ ]: non-standard residue; d: D form. The star is where a group is joined. Sta = CC(C)C[C@H](N)[C@@H](O)CC(=O)O; Nle = CCCC[C@H](N)C(=O)O; Cbz = O=C(OCc1ccccc1)*; Boc = CC(C)(C)OC(=O)*
# Assays:
# HIV-1 IIIB = assay: Antiviral cytotoxicity (MTT) assay with MT4 cells, HIV-1 IIIB; assay type: cell-based; conditions: MT-4 cells, 5 days, average of 2 or 3 experiments
# HIV NL4-3 = assay: Antiviral cytotoxicity (MTT) assay with MT4 cells, HIV NL4-3; assay type: cell-based, HIV-1; conditions: MT-4 cells, 5 days, average of 2 or 3 experiments
# Procedure: Antiviral potency of the peptides was analyzed against HIV-1 HXB2 or NLA-3 strains using a cytotoxicity assay with MT4 cells as previously described (ref 1-3) with minor modifications. MT-4 cells (1.5×10^4/ml) were exposed to 200 50% tissue culture infective doses (TCID50) of viruses in the presence of various concentrations of test compound in 96 well microtiter plates and incubated at 37° C. for 5 days. Cytotoxicity of HIV was measured by the addition of 3-(4,5-dimethylthiazol-2-yl)-2,5-diphenytetrazolium bromide (MMI) solution to each well to a final concentration of 0.75 mg/ml, and incubation for 1 hour a 37° C. After incubation, cells were dissolved in isopropanoyrriton-X 100/HCl (1000:50:25) solution. Absorbance was monitored in a microplate reader (Spectramax, Molecular Devices) at 540 rm and 690 nm. MT-4 cells were obtained from the AIDS Research and Reference Reagent Program (ARRRP, Division of AIDS, NIAID, NIH: MT-4 from Dr. D. Richman). Cells were propagated in RPMI 1640 growth medium supplemented with 10% fetal bovine serum, 50U of penicillin and 50 μg of streptomycin per ml ([Ivitrogen, Carlsbad Calif.).
# Human plasma renin = target: T1, Human plasma renin (Homo sapiens, UniProt P00797); conditions: cited from earlier work; for IC50: literature values
# T1 construct: plasma renin
# T1 sequence (P00797 67-406): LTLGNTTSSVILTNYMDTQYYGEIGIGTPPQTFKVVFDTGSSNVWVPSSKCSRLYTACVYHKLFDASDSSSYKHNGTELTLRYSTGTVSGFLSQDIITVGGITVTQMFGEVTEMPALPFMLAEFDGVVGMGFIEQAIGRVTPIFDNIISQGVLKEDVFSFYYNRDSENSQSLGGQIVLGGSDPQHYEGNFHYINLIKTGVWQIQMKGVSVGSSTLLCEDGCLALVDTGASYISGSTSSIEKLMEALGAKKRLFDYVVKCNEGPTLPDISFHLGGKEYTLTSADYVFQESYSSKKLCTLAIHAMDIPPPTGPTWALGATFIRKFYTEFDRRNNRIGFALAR
Molecule,IC50 (Human plasma renin) [nM],other results
"CCCC[C@H](NC(=O)[C@H](Cc1c[nH]c2ccccc12)NC(C)=O)C(=O)N[C@@H](CCC(=O)O)C(=O)N[C@@H](Cc1c[nH]c2ccccc12)C(=O)N[C@@H](CC(=O)O)C(=O)N[C@@H](CCCNC(=N)N)C(=O)N[C@@H](CCC(=O)O)C(=O)N[C@@H](CCC(N)=O)C(=O)N[C@@H](CC(N)=O)C(=O)N[C@@H](CC(N)=O)C(=O)N[C@@H](Cc1ccc(O)cc1)C(=O)N[C@H](C(=O)N[C@@H](CO)C(=O)N[C@@H](CC(C)C)C(=O)N[C@H](C(=O)N[C@@H](Cc1c[nH]cn1)C(=O)N[C@@H](CO)C(=O)N[C@@H](CC(C)C)C(=O)N[C@H](C(=O)N[C@@H](CCC(=O)O)C(=O)N[C@@H](CCC(=O)O)C(=O)N[C@@H](CO)C(=O)N[C@@H](CCC(N)=O)C(=O)N[C@@H](CC(N)=O)C(=O)N[C@@H](CCC(N)=O)C(=O)N[C@@H](CCC(N)=O)C(=O)N[C@@H](CCC(=O)O)C(=O)N[C@@H](CCCCN)C(=O)N[C@@H](CC(N)=O)C(=O)N[C@@H](CCC(=O)O)C(=O)N[C@@H](CCC(N)=O)C(=O)N[C@@H](CCC(=O)O)C(=O)N[C@@H](CC(C)C)C(=O)N[C@@H](CC(C)C)C(N)=O)[C@@H](C)CC)[C@@H](C)CC)[C@@H](C)O [peptide 2, Ac-WXEWDREQNNYTSLIHSLIEESQNQQEKNEQELL-NH2] (Ac-W[Nle]EWDREQNNYTSLIHSLIEESQNQQEKNEQELL-NH2)",,IC50 (HIV-1 IIIB): 2.4 nM; IC50 (HIV NL4-3): 18 nM
"CCCC[C@H](NC(=O)[C@H](Cc1c[nH]c2ccccc12)NC(C)=O)C(=O)N[C@@H](CCC(=O)O)C(=O)N[C@@H](Cc1c[nH]c2ccccc12)C(=O)N[C@@H](CC(=O)O)C(=O)N[C@@H](CCCNC(=N)N)C(=O)N[C@@H](CCC(=O)O)C(=O)N[C@@H](Cc1c[nH]c2ccccc12)C(=O)N[C@@H](CC(N)=O)C(=O)N[C@@H](CC(N)=O)C(=O)N[C@@H](Cc1ccc(O)cc1)C(=O)N[C@H](C(=O)N[C@@H](CO)C(=O)N[C@@H](CC(C)C)C(=O)N[C@H](C(=O)N[C@@H](Cc1c[nH]cn1)C(=O)N[C@@H](CO)C(=O)N[C@@H](CC(C)C)C(=O)N[C@H](C(=O)N[C@@H](CCC(=O)O)C(=O)N[C@@H](CCC(=O)O)C(=O)N[C@@H](CO)C(=O)N[C@@H](CCC(N)=O)C(=O)N[C@@H](CC(N)=O)C(=O)N[C@@H](CCC(N)=O)C(=O)N[C@@H](CCC(N)=O)C(=O)N[C@@H](CCC(=O)O)C(=O)N[C@@H](CCCCN)C(=O)N[C@@H](CC(N)=O)C(=O)N[C@@H](CCC(=O)O)C(=O)N[C@@H](CCC(N)=O)C(=O)N[C@@H](CCC(=O)O)C(=O)N[C@@H](CC(C)C)C(=O)N[C@@H](CC(C)C)C(N)=O)[C@@H](C)CC)[C@@H](C)CC)[C@@H](C)O [peptide 3, Ac-WXEWDREWNNYTSLIHSLIEESQNQQEKNEQELL-NH2] (Ac-W[Nle]EWDREWNNYTSLIHSLIEESQNQQEKNEQELL-NH2)",,IC50 (HIV-1 IIIB): 1.7 nM; IC50 (HIV NL4-3): 7.6 nM
"CCCC[C@H](NC(=O)[C@H](Cc1c[nH]c2ccccc12)NC(C)=O)C(=O)N[C@@H](CCC(=O)O)C(=O)N[C@@H](Cc1c[nH]c2ccccc12)C(=O)N[C@@H](CC(=O)O)C(=O)N[C@@H](CCCNC(=N)N)C(=O)N[C@@H](CCC(=O)O)C(=O)N[C@H](C(=O)N[C@@H](CC(N)=O)C(=O)N[C@@H](CC(N)=O)C(=O)N[C@@H](Cc1ccc(O)cc1)C(=O)N[C@H](C(=O)N[C@@H](CO)C(=O)N[C@@H](CC(C)C)C(=O)N[C@H](C(=O)N[C@@H](Cc1c[nH]cn1)C(=O)N[C@@H](CO)C(=O)N[C@@H](CCC(N)=O)C(=O)N[C@H](C(=O)N[C@@H](CCC(=O)O)C(=O)N[C@@H](CCC(=O)O)C(=O)N[C@@H](CO)C(=O)N[C@@H](CCC(N)=O)C(=O)N[C@@H](CC(N)=O)C(=O)N[C@@H](CCC(N)=O)C(=O)N[C@@H](CCC(N)=O)C(=O)N[C@@H](CCC(=O)O)C(=O)N[C@@H](CCCCN)C(=O)N[C@@H](CC(N)=O)C(=O)N[C@@H](CCC(=O)O)C(=O)N[C@@H](CCC(N)=O)C(=O)N[C@@H](CCC(=O)O)C(=O)N[C@@H](CC(C)C)C(=O)N[C@@H](CC(C)C)C(N)=O)[C@@H](C)CC)[C@@H](C)CC)[C@@H](C)O)[C@@H](C)CC [peptide 5, Ac-WXEWDREINNYTSLIHSQIEESQNQQEKNEQELL-NH2] (Ac-W[Nle]EWDREINNYTSLIHSQIEESQNQQEKNEQELL-NH2)",,IC50 (HIV-1 IIIB): 6.6 nM; IC50 (HIV NL4-3): 200 nM
"CCCC[C@H](NC(=O)[C@H](Cc1c[nH]c2ccccc12)NC(C)=O)C(=O)N[C@@H](CCC(=O)O)C(=O)N[C@@H](Cc1c[nH]c2ccccc12)C(=O)N[C@@H](CC(=O)O)C(=O)N[C@@H](CCCNC(=N)N)C(=O)N[C@@H](CCCCN)C(=O)N[C@H](C(=O)N[C@@H](CCC(=O)O)C(=O)N[C@@H](CCC(=O)O)C(=O)N[C@@H](Cc1ccc(O)cc1)C(=O)N[C@H](C(=O)N[C@@H](CCCCN)C(=O)N[C@@H](CCCCN)C(=O)N[C@H](C(=O)N[C@@H](CCCCN)C(=O)N[C@@H](CCCCN)C(=O)N[C@@H](CC(C)C)C(=O)N[C@H](C(=O)N[C@@H](CCC(=O)O)C(=O)N[C@@H](CCC(=O)O)C(=O)N[C@@H](CO)C(=O)N[C@@H](CCC(N)=O)C(=O)N[C@@H](CCC(=O)O)C(=O)N[C@@H](CCC(N)=O)C(=O)N[C@@H](CCC(N)=O)C(=O)N[C@@H](CCC(=O)O)C(=O)N[C@@H](CCCCN)C(=O)N[C@@H](CC(N)=O)C(=O)N[C@@H](CCC(=O)O)C(=O)N[C@@H](CCCCN)C(=O)N[C@@H](CCC(=O)O)C(=O)N[C@@H](CC(C)C)C(=O)N[C@@H](CCCCN)C(N)=O)[C@@H](C)CC)[C@@H](C)CC)[C@@H](C)O)[C@@H](C)CC [peptide 6, Ac-WXEWDRKIEEYTKKIKKLIEESQEQQEKNEKELK-NH2] (Ac-W[Nle]EWDRKIEEYTKKIKKLIEESQEQQEKNEKELK-NH2)",,IC50 (HIV-1 IIIB): 2.4 nM; IC50 (HIV NL4-3): 1.2 nM
"CCCC[C@H](NC(=O)[C@H](Cc1c[nH]c2ccccc12)NC(C)=O)C(=O)N[C@@H](CCC(=O)O)C(=O)N[C@@H](Cc1c[nH]c2ccccc12)C(=O)N[C@@H](CC(=O)O)C(=O)N[C@@H](CCCNC(=N)N)C(=O)N[C@@H](CCCCN)C(=O)N[C@H](C(=O)N[C@@H](CCC(=O)O)C(=O)N[C@@H](CCC(=O)O)C(=O)N[C@@H](Cc1ccc(O)cc1)C(=O)N[C@H](C(=O)N[C@@H](CCCCN)C(=O)N[C@@H](CCCCN)C(=O)N[C@H](C(=O)N[C@@H](CCCCN)C(=O)N[C@@H](CCCCN)C(=O)N[C@@H](CC(C)C)C(=O)N[C@H](C(=O)N[C@@H](CCC(=O)O)C(=O)N[C@@H](CCC(=O)O)C(=O)N[C@@H](CO)C(=O)N[C@@H](CCC(N)=O)C(=O)N[C@@H](CCC(=O)O)C(=O)N[C@@H](CC(C)C)C(=O)N[C@@H](CCC(N)=O)C(=O)N[C@@H](CCC(=O)O)C(=O)N[C@@H](CCCCN)C(=O)N[C@@H](CC(N)=O)C(=O)N[C@@H](CCC(=O)O)C(=O)N[C@@H](CCCCN)C(=O)N[C@@H](CCC(=O)O)C(=O)N[C@@H](CC(C)C)C(=O)N[C@@H](CCCCN)C(N)=O)[C@@H](C)CC)[C@@H](C)CC)[C@@H](C)O)[C@@H](C)CC [peptide 7, Ac-WXEWDRKIEEYTKKIKKLIEESQELQEKNEKELK-NH2] (Ac-W[Nle]EWDRKIEEYTKKIKKLIEESQELQEKNEKELK-NH2)",,IC50 (HIV-1 IIIB): 2.4 nM; IC50 (HIV NL4-3): 1.1 nM
Ac-(HCO-Trp)-Pro-Phe-His-Sta---Ile-NH2,0.1,
Ac-HPFV[Sta]LF-NH2,32,
Ac-His-Pro-Phe-His-ACHPA---Leu-Phe-NH2,0.5,
Ac-WPFH[Sta]I-NH2,16,
Boc-FH[Sta]A[Sta]-OMe,27,
Boc-His-Pro-Phe-His-Leu(CH(OH)CH2)Val-Ile-His-OH,0.7,
Boc-Phe-His-ACHPA---Leu-AMB,1,
Boc-Phe-His-Cha-(CH2NH)Val-NH-2(S)-Me(Bu),86,
Boc-Phe-His-Sta---Ile-AMP,6,
Boc-Phe-His-Sta---Leu-AMB,9,
Boc-Phe-His-Sta---Leu-NHCH2Ph,26,
Boc-Pro-Phe-His-Sta---Ile-AMP,4.1,
Cbz-RRPFH[Sta]IHK(Boc)-OMe,1,
Iva-His-Pro-Phe-His-Sta---Ala-Sta,,Ki (Human plasma renin; cell marked (Ki)): 1.9 nM
Iva-Phe-Nle-Sta-Ala-Sta,28,
PEC-Phe-His-ACHPA-ILeNHC(CH2OH)2CH3,< 0.01,
PHPFH[Sta]IF-NH2,3,
PHPFH[Sta]IH[dK],26,
Pro-His-Pro-Phe-His-Leu(CH2NH)Val-Ile-His-Lys,10,
